Measured values as given in patent US6737383B1, “Herbicidal oxadiazolidines” (priority 1999, dated 2004).

How the values were obtained:
blackgrass = assay: Test B pre/postemergence blackgrass; type: in vivo, Alopecurus myosuroides
Procedure, shortened: (§1)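 Herbicidal effect was estimated by eye on a ten-point control scale after plants spent twelve to sixteen days in a greenhouse following soil or foliar treatment. Foliar sprays targeted plants at one to four leaves; all doses were formulated in a non-phytotoxic solvent with surfactant.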

surinam grass = assay: Test B pre/postemergence surinam grass; type: in vivo, Brachiaria decumbens
Procedure, shortened: as §1

cocklebur = assay: Test B pre/postemergence cocklebur; type: in vivo, Xanthium strumarium
Procedure, shortened: as §1

corn = assay: Test B pre/postemergence corn; type: in vivo, Zea mays
Procedure, shortened: as §1

crabgrass = assay: Test B pre/postemergence crabgrass; type: in vivo, Digitaria sanguinalis
Procedure, shortened: as §1

giant foxtail = assay: Test B pre/postemergence giant foxtail; type: in vivo, Setaria faberii
Procedure, shortened: as §1

morningglory = assay: Test B pre/postemergence morningglory; type: in vivo, Ipomoea hederacea
Procedure, shortened: as §1

pigweed = assay: Test B pre/postemergence pigweed; type: in vivo, Amaranthus retroflexus
Procedure, shortened: as §1

rape = assay: Test B pre/postemergence rape; type: in vivo, Brassica napus
Procedure, shortened: as §1

soybean = assay: Test B pre/postemergence soybean; type: in vivo, Glycine max
Procedure, shortened: as §1

sugar beet = assay: Test B pre/postemergence sugar beet; type: in vivo, Beta vulgaris
Procedure, shortened: as §1

velvetleaf = assay: Test B pre/postemergence velvetleaf; type: in vivo, Abutilon theophrasti
Procedure, shortened: as §1

wheat = assay: Test B pre/postemergence wheat; type: in vivo, Triticum aestivum
Procedure, shortened: as §1

wild oat = assay: Test B pre/postemergence wild oat; type: in vivo, Avena fatua
Procedure, shortened: as §1

purple nutsedge = assay: Test B pre/postemergence purple nutsedge; type: in vivo, Cyperus rotundus
Procedure, shortened: as §1

rice = assay: Test B flood test rice; type: in vivo, Oryza sativa
Procedure, shortened: (§2)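 Flood test on plants grown to the 2-leaf stage; treated plants kept in greenhouse twelve to sixteen days, then visually rated against controls on a 0 (no effect) to 10 (complete control) scale.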

smallflower flatsedge = assay: Test B flood test smallflower flatsedge; type: in vivo, Cyperus difformis
Procedure, shortened: as §2

duck salad = assay: Test B flood test duck salad; type: in vivo, Heteranthera limosa
Procedure, shortened: as §2

bamyardgrass = assay: Test B flood test barnyardgrass; type: in vivo, Echinochloa crus-galli
Procedure, shortened: as §2

[1] = Postemergence, Rate 62 g/ha, scale 0 to 10, 0 is no effect, 10 is complete control
[2] = Postemergence, Rate 125 g/ha, scale of 0 to 10 where 0 is no effect and 10 is complete control
[3] = Postemergence, Rate 250 g/ha, scale of 0 to 10, 0 is no effect, 10 is complete control
[4] = Postemergence, Rate 500 g/ha, scale of 0 to 10 where 0 is no effect and 10 is complete control
[5] = Preemergence, Rate 62 g/ha, scale of 0 to 10 where 0 is no effect and 10 is complete control
[6] = Preemergence, Rate 125 g/ha, scale of 0 to 10 where 0 is no effect and 10 is complete control
[7] = Preemergence, Rate 250 g/ha, scale 0 to 10 (0 no effect, 10 complete control)
[8] = Preemergence, Rate 500 g/ha, scale of 0 to 10 where 0 is no effect and 10 is complete control
[9] = Rate 62 g/ha, flood test species, Pre-emergence, visual evaluation after twelve to sixteen days
[10] = Rate 125 g/ha, under heading Pre-emergence, flood test species, visual evaluation after twelve to sixteen days
[11] = Rate 250 g/ha, Pre-emergence (flood test species), scale 0 to 10, 0 is no effect, 10 is complete control
[12] = Rate 500 g/ha, Pre-emergence section of Table B, 0 to 10 scale (0 no effect, 10 complete control)

CC(C)N(C(=O)n1oc(=O)n(CC(=O)C2CCC2)c1=O)c1ccc(Cl)cc1 [Compound 643]
Plant response rating, Blackgrass (blackgrass; [1]): 0
Blackgrass plant response rating (blackgrass; [2]): 0
Blackgrass plant response rating (blackgrass; [3]): 0
Plant response rating, Blackgrass (blackgrass; [4]): 4
Blackgrass plant response rating (blackgrass; [5]): 0
Blackgrass plant response rating (blackgrass; [6]): 0
Plant response rating, Blackgrass (blackgrass; [7]): 0
Plant response rating, Blackgrass (blackgrass; [8]): 8
Plant response rating, B. signalgrass (surinam grass; [1]): 0
Plant response rating, B. signalgrass (surinam grass; [2]): 0
B. signalgrass plant response rating (surinam grass; [3]): 0
Plant response rating, B. signalgrass (surinam grass; [4]): 2
B. signalgrass plant response rating (surinam grass; [5]): 0
B. signalgrass plant response rating (surinam grass; [6]): 2
Plant response rating, B. signalgrass (surinam grass; [7]): 2
Plant response rating, B. signalgrass (surinam grass; [8]): 6
Plant response rating, Cocklebur (cocklebur; [1]): 0
Cocklebur plant response rating (cocklebur; [2]): 0
Cocklebur plant response rating (cocklebur; [3]): 0
Plant response rating, Cocklebur (cocklebur; [4]): 0
Cocklebur plant response rating (cocklebur; [5]): 0
Cocklebur plant response rating (cocklebur; [6]): 0
Plant response rating, Cocklebur (cocklebur; [7]): 0
Plant response rating, Cocklebur (cocklebur; [8]): 0
Plant response rating, Corn (corn; [1]): 0
Corn plant response rating (corn; [2]): 0
Corn plant response rating (corn; [3]): 0
Plant response rating, Corn (corn; [4]): 0
Corn plant response rating (corn; [5]): 0
Corn plant response rating (corn; [6]): 0
Plant response rating, Corn (corn; [7]): 0
Plant response rating, Corn (corn; [8]): 0
Plant response rating, Crabgrass (crabgrass; [1]): 0
Crabgrass plant response rating (crabgrass; [2]): 0
Crabgrass plant response rating (crabgrass; [3]): 0
Plant response rating, Crabgrass (crabgrass; [4]): 6
Crabgrass plant response rating (crabgrass; [5]): 0
Crabgrass plant response rating (crabgrass; [6]): 3
Plant response rating, Crabgrass (crabgrass; [7]): 9
Plant response rating, Crabgrass (crabgrass; [8]): 10
Plant response rating, Giant foxtail (giant foxtail; [1]): 0
Giant foxtail plant response rating (giant foxtail; [2]): 0
Giant foxtail plant response rating (giant foxtail; [3]): 0
Plant response rating, Giant foxtail (giant foxtail; [4]): 0
Giant foxtail plant response rating (giant foxtail; [5]): 6
Giant foxtail plant response rating (giant foxtail; [6]): 8
Plant response rating, Giant foxtail (giant foxtail; [7]): 10
Plant response rating, Giant foxtail (giant foxtail; [8]): 10
Plant response rating, Morningglory (morningglory; [1]): 0
Morningglory plant response rating (morningglory; [2]): 4
Morningglory plant response rating (morningglory; [3]): 4
Plant response rating, Morningglory (morningglory; [4]): 6
Morningglory plant response rating (morningglory; [5]): 0
Morningglory plant response rating (morningglory; [6]): 0
Plant response rating, Morningglory (morningglory; [7]): 0
Plant response rating, Morningglory (morningglory; [8]): 0
Plant response rating, Redroot pigweed (pigweed; [1]): 0
Redroot pigweed plant response rating (pigweed; [2]): 0
Redroot pigweed plant response rating (pigweed; [3]): 0
Redroot pigweed plant response rating (pigweed; [5]): 0
Redroot pigweed plant response rating (pigweed; [6]): 0
Plant response rating, Redroot pigweed (pigweed; [7]): 0
Plant response rating, Redroot pigweed (pigweed; [8]): 5
Rape plant response rating (rape; [2]): 0
Rape plant response rating (rape; [3]): 0
Plant response rating, Rape (rape; [4]): 0
Rape plant response rating (rape; [5]): 0
Rape plant response rating (rape; [6]): 0
Plant response rating, Rape (rape; [7]): 0
Plant response rating, Rape (rape; [8]): 6
Plant response rating, Soybean (soybean; [1]): 1
Soybean plant response rating (soybean; [2]): 1
Soybean plant response rating (soybean; [3]): 1
Soybean plant response rating (soybean; [5]): 0
Soybean plant response rating (soybean; [6]): 0
Plant response rating, Soybean (soybean; [7]): 0
Plant response rating, Soybean (soybean; [8]): 0
Plant response rating, Sugarbeets (sugar beet; [1]): 0
Sugarbeets plant response rating (sugar beet; [2]): 0
Sugarbeets plant response rating (sugar beet; [3]): 0
Sugarbeets plant response rating (sugar beet; [5]): 0
Sugarbeets plant response rating (sugar beet; [6]): 0
Plant response rating, Sugarbeets (sugar beet; [7]): 0
Plant response rating, Sugarbeets (sugar beet; [8]): 0
Plant response rating, Velvetleaf (velvetleaf; [1]): 0
Velvetleaf plant response rating (velvetleaf; [2]): 0
Velvetleaf plant response rating (velvetleaf; [3]): 0
Velvetleaf plant response rating (velvetleaf; [5]): 0
Velvetleaf plant response rating (velvetleaf; [6]): 0
Plant response rating, Velvetleaf (velvetleaf; [7]): 0
Plant response rating, Velvetleaf (velvetleaf; [8]): 0
Plant response rating, Wheat (wheat; [1]): 0
Wheat plant response rating (wheat; [2]): 0
Wheat plant response rating (wheat; [3]): 0
Wheat plant response rating (wheat; [5]): 0
Wheat plant response rating (wheat; [6]): 0
Plant response rating, Wheat (wheat; [7]): 0
Plant response rating, Wheat (wheat; [8]): 0
Plant response rating, Wild oats (wild oat; [1]): 0
Wild oats plant response rating (wild oat; [2]): 1
Wild oats plant response rating (wild oat; [3]): 1
Wild oats plant response rating (wild oat; [5]): 0
Wild oats plant response rating (wild oat; [6]): 0
Plant response rating, Wild oats (wild oat; [7]): 0
Plant response rating, Wild oats (wild oat; [8]): 1
Plant response rating, Nutsedge (purple nutsedge; [1]): 0
Nutsedge plant response rating (purple nutsedge; [2]): 0
Nutsedge plant response rating (purple nutsedge; [3]): 0
Plant response rating, Nutsedge (purple nutsedge; [4]): 0
Nutsedge plant response rating (purple nutsedge; [5]): 0
Nutsedge plant response rating (purple nutsedge; [6]): 0
Plant response rating, Nutsedge (purple nutsedge; [7]): 0
Plant response rating, Nutsedge (purple nutsedge; [8]): 0
Plant response rating, Rice (0 to 10 scale, 0 is no effect, 10 is complete control) (rice; [9]): 0
Rice plant response rating (0 to 10 scale, 0 is no effect, 10 is complete control) (rice; [10]): 0
Rice plant response rating (rice; [11]): 0
Rice plant response rating (rice; [12]): 0
Plant response rating, S. Flatsedge (0 to 10 scale, 0 is no effect, 10 is complete control) (smallflower flatsedge; [9]): 0
S. Flatsedge plant response rating (0 to 10 scale, 0 is no effect, 10 is complete control) (smallflower flatsedge; [10]): 0
S. Flatsedge plant response rating (smallflower flatsedge; [11]): 0
S. Flatsedge plant response rating (smallflower flatsedge; [12]): 0
Plant response rating, Ducksalad (0 to 10 scale, 0 is no effect, 10 is complete control) (duck salad; [9]): 0
Ducksalad plant response rating (0 to 10 scale, 0 is no effect, 10 is complete control) (duck salad; [10]): 0
Ducksalad plant response rating (duck salad; [11]): 0
Ducksalad plant response rating (duck salad; [12]): 0
Plant response rating, Barnyardgrass (0 to 10 scale, 0 is no effect, 10 is complete control) (bamyardgrass; [9]): 0
Barnyardgrass plant response rating (0 to 10 scale, 0 is no effect, 10 is complete control) (bamyardgrass; [10]): 0
Barnyardgrass plant response rating (bamyardgrass; [11]): 0
Barnyardgrass plant response rating (bamyardgrass; [12]): 0
